Reference: patent US4436751A, “Nitrobenzyl monates antibacterial compounds” (Beecham Group Limited, priority 1980, dated 1984)
Values after ≈ are worked out from the molar mass of the structure shown. Read-outs that look alike come from different tables or passages of the source.

Assays:
Format in all cases: cell-based
M. suipneumoniae NB12 = experiment: Anti-mycoplasmal MIC in vitro, Friis broth agarose (Table 1); conditions: Mesomycoplasma hyopneumoniae, NB12, 144 h
M. suipneumoniae JF 435 = experiment: as above; conditions: Mesomycoplasma hyopneumoniae, JF435, 144 h
M. suipneumoniae HR(2) = experiment: as above; conditions: Mesomycoplasma hyopneumoniae, 144 h
M. suipneumoniae Str. 11 = experiment: as above; conditions: Mesomycoplasma hyopneumoniae, STR.11, 144 h
[1] = system: M. suipneumoniae J2206/183b; experiment: as above; conditions: Mesomycoplasma hyopneumoniae, 144 h
M. suipneumoniae MS 16 = experiment: as above; conditions: Mesomycoplasma hyopneumoniae, MS16, 144 h
[2] = system: M. suipneumoniae PW/C/210; experiment: as above; conditions: Mesomycoplasma hyopneumoniae, 144 h
M. suipneumoniae OCD 1 = experiment: as above; conditions: Mesomycoplasma hyopneumoniae, OCD1, 144 h
M. suipneumoniae TAM 6N = experiment: as above; conditions: Mesomycoplasma hyopneumoniae, TAM6N, 144 h
[3] = system: M. suipneumoniae ATCC 25095; experiment: as above; conditions: Mesomycoplasma hyopneumoniae, ATCC25095, 144 h
[4] = system: M. suipneumoniae NCTC 10110; experiment: as above; conditions: Mesomycoplasma hyopneumoniae, NCTC10110, 144 h
M. hyorhinis ATCC 25021 = experiment: as above; conditions: Mesomycoplasma hyorhinis, ATCC25021, 144 h
[5] = system: M. hyosynoviae ATOC 25591; experiment: as above; conditions: 144 h
M. bovis RCTC 10131 = experiment: microbe, parasite or virus in culture; conditions: RCTC10131, 144 h
[6] = system: M. bovigenitalium ATOC 14173; experiment: Anti-mycoplasmal MIC in vitro, Friis broth agarose (Table 1); conditions: 144 h
M. dispar RCTC 10125 = experiment: as above; conditions: 144 h
[7] = system: Corynebacterium pyogenes CY1; experiment: Veterinary bacteria MIC, Diagnostic Sensitivity Test Agar (Table 2); conditions: Trueperella pyogenes, CY1, 18 h
Description: (§1) The values were determined using a two fold serial dilutions in Diagnostic Sensitivity Test Agar with an inoculum of 10^4 organisms and incubation for 18 hours at 37° C.

[8] = system: Erysipelothrix rhusiopathiae NCTC 8163; experiment: as above
Description: as §1

Past. haemolytica PA5 = experiment: as above; conditions: Mannheimia haemolytica; Past. haemolytica PA5; DST Agar, 10^4 organisms, 18 hours 37° C.; read-out: MIC
Description: as §1

Past. multocida PA1 = experiment: as above; conditions: Pasteurella multocida
Description: as §1

S. typhimurium S18 = experiment: as above; conditions: Salmonella enterica, TYPHIMURIUM, 18 h
Description: as §1

Staph. aureus 152 = experiment: as above
Description: as §1

Strep. agalactiae SPA1 = experiment: as above; conditions: Streptococcus agalactiae; Strep. agalactiae SPA1; DST Agar, 10^4 organisms, 18 hours 37° C.; read-out: MIC
Description: as §1

E. coli ESS = experiment: Human bacteria MIC, nutrient agar with chocolated horse blood (Table 3); conditions: Escherichia coli, 18 h
Description: (§2) The values were determined by serial dilutions in nutrient agar with 5% chocolated horse blood after incubations for 18 hours at 37° C.

[9] = system: Neisseria catarrhalis 1502; experiment: as above
Description: as §2

Strep. 641848-C = experiment: as above; conditions: Strep. 641848-C; nutrient agar 5% chocolated horse blood, 18 hours 37° C.; read-out: MIC
Description: as §2

Strep. pneumoniae CN33 = experiment: as above; conditions: Streptococcus pneumoniae; Strep. pneumoniae CN33; nutrient agar 5% chocolated horse blood, 18 hours 37° C.; read-out: MIC
Description: as §2

Strep. 2733-B = experiment: as above; conditions: Strep. 2733-B; nutrient agar 5% chocolated horse blood, 18 hours 37° C.; read-out: MIC
Description: as §2

| SMILES | MIC (M. suipneumoniae NB12) | MIC (M. suipneumoniae JF 435) | MIC (M. suipneumoniae HR(2)) | MIC (M. suipneumoniae Str. 11) | MIC (M. suipneumoniae MS 16) | MIC [2] | MIC [3] | MIC [4] | MIC (M. hyorhinis ATCC 25021) | MIC (M. bovis RCTC 10131) | MIC [7] | MIC (Past. haemolytica PA5) | MIC (S. typhimurium S18) | MIC (Strep. agalactiae SPA1) | MIC (Strep. 641848-C) | other results |
| --- | --- | --- | --- | --- | --- | --- | --- | --- | --- | --- | --- | --- | --- | --- | --- | --- |
| C/C(=C\C(=O)OCc1cccc([N+](=O)[O-])c1C)CC1OCC(CC2OC2C(C)C(C)O)C(O)C1O (centres unmarked) [Example 8, 2-methyl-3-nitrobenzyl monate A] | 0.1 µg/mL (≈ 0.203 µM) | 0.1 µg/mL (≈ 0.203 µM) | 0.1 µg/mL (≈ 0.203 µM) | 0.1 µg/mL (≈ 0.203 µM) | 0.1 µg/mL (≈ 0.203 µM) | 0.1 µg/mL (≈ 0.203 µM) | 0.1 µg/mL (≈ 0.203 µM) | 0.1 µg/mL (≈ 0.203 µM) | 0.1 µg/mL (≈ 0.203 µM) | < 0.01 µg/mL | > 80 µg/mL | 10 µg/mL (≈ 20.3 µM) | > 80 µg/mL | 0.625 µg/mL (≈ 1.27 µM) | 0.5 µg/mL (≈ 1.01 µM) | MIC ([1]; M. suipneumoniae J2206/183b, in vitro, 6 days 37° C., read-out: MIC): 0.25 µg/mL (≈ 0.507 µM); MIC (M. suipneumoniae OCD 1; M. suipneumoniae OCD 1, in vitro, 6 days 37° C., read-out: MIC): 0.25 µg/mL (≈ 0.507 µM); MIC (M. suipneumoniae TAM 6N; M. suipneumoniae TAM 6N, in vitro, 6 days 37° C., read-out: MIC): 0.25 µg/mL (≈ 0.507 µM); MIC ([5]; M. hyosynoviae ATOC 25591, in vitro, 6 days 37° C., read-out: MIC): 0.05 µg/mL (≈ 0.101 µM); MIC ([6]; M. bovigenitalium ATOC 14173, in vitro, 6 days 37° C., read-out: MIC): 0.025 µg/mL (≈ 0.0507 µM); MIC (M. dispar RCTC 10125; M. dispar RCTC 10125, in vitro, 6 days 37° C., read-out: MIC): 0.05 µg/mL (≈ 0.101 µM); MIC ([8]; NCTC8163, Erysipelothrix rhusiopathiae NCTC 8163, DST Agar, 10^4 organisms, 18 hours 37° C., read-out: MIC): 20 µg/mL (≈ 40.5 µM); MIC (Past. multocida PA1; Past. multocida PA1, DST Agar, 10^4 organisms, 18 hours 37° C., read-out: MIC): 1.25 µg/mL (≈ 2.53 µM); MIC (Staph. aureus 152; Staphylococcus aureus, 152, 18 h): 0.312 µg/mL (≈ 0.632 µM); MIC (E. coli ESS): 1 µg/mL (≈ 2.03 µM); MIC ([9]; Neisseria catarrhalis 1502, nutrient agar 5% chocolated horse blood, 18 hours 37° C., read-out: MIC): 0.25 µg/mL (≈ 0.507 µM); MIC (Strep. pneumoniae CN33): 0.5 µg/mL (≈ 1.01 µM) |
| C/C(=C\C(=O)OCc1ccc([N+](=O)[O-])cc1Cl)CC1OCC(CC2OC2C(C)C(C)O)C(O)C1O (centres unmarked) [Example 11, 2-chloro-4-nitrobenzyl monate A] | 1 µg/mL (≈ 1.95 µM) | 2.5 µg/mL (≈ 4.86 µM) | 2.5 µg/mL (≈ 4.86 µM) | 1 µg/mL (≈ 1.95 µM) | 1 µg/mL (≈ 1.95 µM) | 1 µg/mL (≈ 1.95 µM) | 1 µg/mL (≈ 1.95 µM) | 1 µg/mL (≈ 1.95 µM) | 0.5 µg/mL (≈ 0.973 µM) | 0.025 µg/mL (≈ 0.0486 µM) | > 80 µg/mL | 2.5 µg/mL (≈ 4.86 µM) | 80 µg/mL (≈ 156 µM) | 0.156 µg/mL (≈ 0.304 µM) | 1 µg/mL (≈ 1.95 µM) | MIC ([1]; J2206/183B): 1 µg/mL (≈ 1.95 µM); MIC (M. suipneumoniae OCD 1): 2.5 µg/mL (≈ 4.86 µM); MIC (M. suipneumoniae TAM 6N): 2.5 µg/mL (≈ 4.86 µM); MIC [5]: 0.1 µg/mL (≈ 0.195 µM); MIC [6]: 0.05 µg/mL (≈ 0.0973 µM); MIC (M. dispar RCTC 10125): 0.5 µg/mL (≈ 0.973 µM); MIC ([8]; Erysipelothrix rhusiopathiae, NCTC8163, 18 h): 5 µg/mL (≈ 9.73 µM); MIC (Past. multocida PA1; PA1, 18 h): 0.625 µg/mL (≈ 1.22 µM); MIC (Staph. aureus 152; Staphylococcus aureus, Staph. aureus 152, DST Agar, 10^4 organisms, 18 hours 37° C., read-out: MIC): 0.07 µg/mL (≈ 0.136 µM); MIC ([9]; Neisseria, 1502, 18 h): 0.5 µg/mL (≈ 0.973 µM); MIC (Strep. 2733-B): 1 µg/mL (≈ 1.95 µM) |
